What was measured:
[1] = molecular target: Hsp70 A (heat shock 70 kDa protein A) (Caenorhabditis elegans, UniProt P09446); experiment: microscale thermophoresis; assay type: binding
[2] = molecular target: V-ATPase A (V-type proton ATPase catalytic subunit A) (Caenorhabditis elegans, UniProt Q9XW92); experiment: microscale thermophoresis; assay type: binding
Sequence of V-ATPase A (V-type proton ATPase catalytic subunit A) (Q9XW92 whole entry): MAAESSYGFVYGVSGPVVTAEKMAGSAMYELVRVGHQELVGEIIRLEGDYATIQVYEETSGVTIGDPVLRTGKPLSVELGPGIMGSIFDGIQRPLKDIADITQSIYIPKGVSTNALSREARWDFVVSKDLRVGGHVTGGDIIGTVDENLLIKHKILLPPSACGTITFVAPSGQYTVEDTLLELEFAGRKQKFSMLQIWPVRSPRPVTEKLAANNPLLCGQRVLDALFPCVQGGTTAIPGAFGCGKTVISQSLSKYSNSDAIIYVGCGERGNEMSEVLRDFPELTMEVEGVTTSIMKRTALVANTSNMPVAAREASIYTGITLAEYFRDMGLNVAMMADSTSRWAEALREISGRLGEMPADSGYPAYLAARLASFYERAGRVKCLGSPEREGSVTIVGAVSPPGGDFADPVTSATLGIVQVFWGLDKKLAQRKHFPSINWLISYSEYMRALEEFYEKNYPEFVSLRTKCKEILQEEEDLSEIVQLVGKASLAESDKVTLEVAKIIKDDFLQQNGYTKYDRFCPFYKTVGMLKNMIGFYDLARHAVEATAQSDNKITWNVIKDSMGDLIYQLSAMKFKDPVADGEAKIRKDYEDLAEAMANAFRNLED

Sequence of Hsp70 A (heat shock 70 kDa protein A) (P09446 whole entry): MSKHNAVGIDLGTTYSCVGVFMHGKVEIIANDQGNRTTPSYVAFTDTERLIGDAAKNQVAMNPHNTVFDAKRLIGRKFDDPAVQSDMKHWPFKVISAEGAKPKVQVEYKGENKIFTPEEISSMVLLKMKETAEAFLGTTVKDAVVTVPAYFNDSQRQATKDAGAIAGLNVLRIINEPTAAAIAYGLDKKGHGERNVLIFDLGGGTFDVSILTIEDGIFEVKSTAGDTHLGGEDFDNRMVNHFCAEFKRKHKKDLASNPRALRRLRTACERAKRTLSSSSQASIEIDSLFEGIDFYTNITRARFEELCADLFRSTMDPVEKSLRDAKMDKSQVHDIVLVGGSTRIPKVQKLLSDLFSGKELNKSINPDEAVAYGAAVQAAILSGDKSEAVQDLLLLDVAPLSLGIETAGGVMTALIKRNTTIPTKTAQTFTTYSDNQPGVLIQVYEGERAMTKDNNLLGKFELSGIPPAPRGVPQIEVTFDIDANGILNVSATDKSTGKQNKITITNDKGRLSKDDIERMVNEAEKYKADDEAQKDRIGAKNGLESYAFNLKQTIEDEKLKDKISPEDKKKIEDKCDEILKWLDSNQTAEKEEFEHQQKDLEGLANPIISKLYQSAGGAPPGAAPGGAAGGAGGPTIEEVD

- Kd [1]: 117 ± 16.3 nM
- Kd [2]: 302 ± 43.9 nM
SMILES: CCCCCCCCCC(C)=O [2-undecanone]
